The values that follow come from patent US20080269326A1, “Use of 1-Phenyl-3-Dimethylamino-propane Compounds for Treating Neuropathic Pain” (GRUENENTHAL GmbH, priority 2007, published 2008).

By ED50 is commonly meant the midpoint of the dose-response relation.

Assay [1] deals with cold allodynia in Bennett animals. The experiment in a line: Bennett model (chronic constriction injury), cold allodynia on 4° C. cold metal plate. It counts as in vivo, rat. As to conditions: for ED50: Rattus norvegicus. On the procedure:
The effectiveness in treating neuropathic pain was investigated in the Bennett model (chronic constriction injury; Bennett and Xie, 1988, Pain 33: 87-107).
(§1) Sprague-Dawley rats weighing 140-160 g are provided with four loose ligatures of the right sciatic nerve under nembutal narcosis. The animals develop a hypersensitivity in the paw innervated by the damaged nerve, which after a healing phase of one week is quantified over about four weeks by means of a 4° C. cold metal plate (cold allodynia). The animals are observed for two minutes on this plate and the number of retractive movements of the damaged paw are measured. The effect of the substance is determined with reference to the base value before application of the substance, at four different times over a period of one hour(15, 30, 45 and 60 minutes after application) and the resultant area under the curve (AUD) as well as the inhibition of cold allodynia at the individual measurement points is expressed in percent effect with reference to the vehicle control (AUD) and to the initial value (individual measurement points). The cohort size is n=10.

Assay [2] concerns cold allodynia in morphine-tolerant Bennett animals. Nature of the assay: Bennett model cold allodynia in morphine-tolerant animals. It counts as in vivo, rat. The method, then:
as §1
The underlying question is the action of a test substance having a presumably opioid action mechanism in patients who are tolerant or treatment-resistant to morphine. […] The action of test substances in naive (non-morphine-tolerant) animals and morphine-tolerant animals is compared in Table 4. […] Morphine [10 mg/kg i.p.], Compound 9 [10 and 21.5 mg/kg i.p.], Compound 10 [0.46 and 1 mg/kg i.p.], Compound 4 [21.5 mg/kg i.p.] and Compound 11 [21.5 mg/kg i.p.] were tested analogously to Example 1.

Assay [3] concerns tactile allodynia in Chung animals. The experiment in a line: Chung model (spinal nerve ligature), tactile allodynia, electronic von Frey. The following applies: Rattus norvegicus, ip, 0.5 h; rats, i.p., 30 minutes after administration. It counts as in vivo. On the procedure:
Spinal nerve ligatures according to Kim & Chung (1992 Pain 50, 355-363) were applied to the left L5/L6 spinal nerves of male Spraque-Dawley rats. Four to six days after the operation the tactile threshold baseline (withdrawal threshold) was measured on the ipsilateral and contralateral rear paw by an electronic von Frey anaesthesiometer (IITC Life Science, USA). After the test and measurement of the baseline, morphine, gabapentin and some of the aforementioned compounds used according to the invention were administered. The tactile withdrawal thresholds were measured 30 minutes after the administration. The results are expressed as ED50 and % maximal possible effect (% MPE) on the ipsilateral side, in which the baseline is taken as 0% and the withdrawal threshold of a control group is taken as 100% MPE.

The test system of the next assay is neuropathic pain. Nature of the assay: Tests of substances together with naloxone in treating neuropathic pain. It counts as in vivo.
For assay [4], the system named is mechanical hyperalgesia in diabetic animals. Nature of the assay: Streptozotocin diabetic neuropathy, mechanical hyperalgesia (Randall and Sellito). It counts as in vivo, rat. The following applies: diabetic rats; for ED50: Rattus norvegicus, ip, i.p., read-out: Mechanical hyperalgesia ED50 (95% confidence region). On the procedure:
Male Sprague-Dawley rats weighing 160-180 g received an intra-peritoneal injection of streptozotocin (75 mg/kg body weight) dissolved in pH 4.6 citrate buffer. One week later diabetic animals were identified by measuring the blood glucose level, and those with a blood glucose level of ≧17 mM were included in the study. Three and four weeks after administration of streptozotocin the mechanical reaction threshold was measured in diabetic animals by the method of Randall and Sellito (1957 Arch. Int. Pharmacody. […]:409-419) before (pre-test) and at various times after administration of the test substance or vehicle (post-test). […] The maximum pressure exerted on the rear paw was 250 g. The end point of the mechanical reaction threshold in grams was determined based on the reaction of the animal (withdrawal of the rear paw, vocalisation or evasive reaction). The size of the cohort in the individual dose stages was n=10. The maximum possible response in percent (% MPE=% of maximum possible effect) was calculated according to the formula:
% MPE=(post-test−pre-test)/(250−pre-test)×100.
ED50 values (dose at which 50% maximum inhibition occurred) were determined by regression analysis from the % MPE values at the time of the maximum effect.

In the case of `CC(CN(C)C)=C(C)c1cccc(O)c1` [Compound 14, 3-(3-dimethylamino-1,2-dimethylpropenyl)-phenol], the ED50 in assay [1] (ip, rats) was 3.6 mg/kg.
Regarding `CC[C@H](c1cccc(O)c1)[C@H](C)CN(C)C` [Compound 10, (1S,2S)-3-(3-dimethylamino-1-ethyl-2-methylpropyl)phenol], the “Cold allodynia (% AUD) Naïve animals” value was determined as 29.0 % AUD in assay [1] (0.46 mg/kg i.p.), 42.7 % AUD in assay [1] (1 mg/kg i.p.) and 59.2 % AUD in assay [1] (2.15 mg/kg i.p.). Moreover, the ED50 was 1.2 mg/kg in assay [1] (ip, rats) and 1.5 mg/kg in assay [3]. The “Cold allodynia (% AUD) Morphine-tolerant animals” value in assay [2] (0.46 mg/kg i.p.) is reported as 22.9 % AUD; in assay [2] (1 mg/kg i.p.) it was 39.9 % AUD; in assay [2] (2.15 mg/kg i.p.) it was 13.0 % AUD. The “effectiveness in treating neuropathic pain with naloxone” value in the assay with neuropathic pain is “effective”.
Regarding `C[C@H](CN(C)C)[C@@](C)(O)c1cccc(O)c1` [Compound 7, (1R,2R)-3-(3-dimethylamino-1-hydroxy-1,2-dimethylpropyl)phenol], it took a dose of 11.1 mg/kg to reach the 50% effect level in assay [1] (ip, rats) (ED50).
On the same count and under the same terms, then `CC[C@@](O)(c1cccc(OC)c1)[C@@H](C)CN(C)C` [Compound 2, (2S,3S)-1-dimethylamino-3-(3-methoxyphenyl)-2-methylpentan-3-ol], with 26 mg/kg.
Consider `C[C@@H](CN(C)C)[C@](C)(O)c1cccc(O)c1` [Compound 6, (1S,2S)-3-(3-dimethylamino-1-hydroxy-1,2-dimethylpropyl)phenol], for which the median effective dose (ED50) in assay [1] (ip, rats) is 32.6 mg/kg; in assay [3], 4.65 mg/kg.
For `CC[C@](O)(c1cccc(OC)c1)[C@H](C)CN(C)C` (racemic) [Compound 1, (2RS,3RS)-1-dimethylamino-3-(3-methoxyphenyl)-2-methylpentan-3-ol] the same measures were 11.1 mg/kg and 10.1 mg/kg.
Compound `CC[C@](O)(c1cccc(OC)c1)[C@H](C)CN(C)C` [Compound 3, (2R,3R)-1-dimethylamino-3-(3-methoxyphenyl)-2-methylpentan-3-ol] had an ED50 in assay [1] (ip, rats) of 9.2 mg/kg.
Consider `CC[C@](O)(c1cccc(C(F)F)c1)[C@H](C)CN(C)C` (racemic) [Compound 8, (2RS,3RS)-3-(difluoromethylphenyl)-1-dimethylamino-2-methylpentan-3-ol], for which, in assay [1] (rats, i.p.), the “Cold allodynia ED50” value stood at 17.1 mg/kg.
As to `COc1cccc(C2(O)CCCCC2CN(C)C)c1` (stereo not drawn) [Tramadol], the median effective dose (ED50) in assay [4] is 9.2 mg/kg. Further, the “Mechanical hyperalgesia Maximum effect in % MPE” value in assay [4] (21.5 mg/kg i.p.) is reported as 86% (21.5 mg/kg) % MPE.
In assay [1] (ip, rats), `C[C@H](CN(C)C)[C@@](C)(O)c1cccc(O)c1` (racemic) [Compound 5, (1RS,2RS)-3-(3-dimethylamino-1-hydroxy-1,2-dimethylpropyl)-phenol] showed an ED50 of 15 mg/kg.
With `CN1CC[C@]23c4c5ccc(O)c4O[C@H]2[C@@H](O)C=C[C@H]3[C@H]1C5` [Morphine, reference compound], in assay [1] (10 mg/kg i.p.), the “Cold allodynia (% AUD) Naïve animals” value was determined as 78.6 % AUD. Moreover, the ED50 in assay [1] (ip, rats) came out at 7.1 mg/kg; in assay [3], 4.6 mg/kg; in assay [4], 3 mg/kg. For the same compound, in assay [2] (10 mg/kg i.p.), the “Cold allodynia (% AUD) Morphine-tolerant animals” value is given as −22.0 % AUD. Further, the “anti-allodynic action (cold allodynia) in morphine-tolerant animals” value in assay [2] (i.p.) is “no longer exhibits any effect”. Further, in assay [4] (10 mg/kg i.p.), the “Mechanical hyperalgesia Maximum effect in % MPE” value is 89% (10 mg/kg) % MPE. Also, the “effectiveness in treating neuropathic pain with naloxone” value in the assay with neuropathic pain is recorded as “effective”.
Regarding `NCC1(CC(=O)O)CCCCC1` [Gabapentin, reference compound], the 50% effective dose (ED50) in assay [1] (po, rats) was determined as 214 mg/kg; in assay [3] it was 92.6 mg/kg; in assay [4], 225 mg/kg. Further, the “Mechanical hyperalgesia Maximum effect in % MPE” value in assay [4] (464 mg/kg i.p.) was 80% (464 mg/kg) % MPE.
